Experimental findings from patent US20260176270A1 (Exelixis, Inc., priority 2022, published 2026) are described below.

Structures are written as SMILES. Where two headings read alike, the source gives them in different places.

The target in one test is T1, PKMYT1 (Homo sapiens, UniProt Q99640).
T1 construct: PKMYT1 (93 kD, full length, N-terminal GST tag from Signal Chem); GST (N); purchased Signal Chem
T1 sequence (Q99640 1-499): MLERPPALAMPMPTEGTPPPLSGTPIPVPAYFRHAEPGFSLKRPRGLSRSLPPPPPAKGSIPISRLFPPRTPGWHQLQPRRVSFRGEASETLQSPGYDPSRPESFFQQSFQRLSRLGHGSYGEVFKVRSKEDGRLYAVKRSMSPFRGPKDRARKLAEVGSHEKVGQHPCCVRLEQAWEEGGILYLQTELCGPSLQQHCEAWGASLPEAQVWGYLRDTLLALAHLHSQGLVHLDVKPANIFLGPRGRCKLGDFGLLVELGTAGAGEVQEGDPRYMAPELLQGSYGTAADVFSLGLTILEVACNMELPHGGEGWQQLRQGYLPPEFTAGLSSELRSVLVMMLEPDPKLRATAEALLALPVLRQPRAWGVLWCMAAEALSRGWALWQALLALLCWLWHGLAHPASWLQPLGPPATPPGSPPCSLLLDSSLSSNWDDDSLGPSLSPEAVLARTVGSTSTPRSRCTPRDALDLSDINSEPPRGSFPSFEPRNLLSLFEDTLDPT
Nature of the test: ADP-Glo PKMYT1 ATP-depletion assay. The following applies: 50 nM PKMYT1, 13.3 nM CDK1, read-out: Biochemical IC50. An outline of the steps: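 Full-length N-terminal GST-tagged PKMYT1 (50 nM) with GST-CDK1 (13.3 nM) as substrate and 88 µM ATP, in Hepes buffer with MgCl2, MnCl2, DTT and BSA; DMSO <1%. Incubated 120 min at RT. ADP formed was quantified by ADP-Glo luminescence and used to derive biochemical IC50.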

The subject of test [1] is phosphorylation of CDK1 at Thr14 in HCC1806 cells. Description: Cell lysate AlphaLISA assay measuring inhibition of phosphorylation of CDK1 Thr14. Type of test: cell-based. Conditions: read-out: Cellular IC50. The method in brief: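 HCC1806 cells seeded overnight, then treated 4 h at 37 °C, 5% CO2 with compounds in DMSO; washed and lysed, lysates frozen overnight at −80 °C. CDK1 Thr14 phosphorylation read by AlphaLISA SureFire Ultra; data normalized to DMSO (0% inhibition) and 3 μM reference compound to give IC50.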
(In Alpha technology, singlet oxygen from a donor bead excites a nearby acceptor bead.)

For orientation: IC50 means the concentration that gives 50% inhibition. Take `NC(=O)c1nc2cccnc2c(-c2c(F)ccc3[nH]ncc23)c1N` (atropisomer, axis not shown) [Compound 245]: the half-maximal inhibitory concentration (IC50) (at PKMYT1; in test [1] (4 hours)) was at least 5000 nM in each case.

`Cc1nc2cc(C(N)=O)c(N)c(-c3cccc(O)c3C)c2nc1C` (single isomer, unassigned) [Compound 92, (P)-7-Amino-8-(3-hydroxy-2-methylphenyl)-2,3-dimethylquinoxaline-6-carboxamide]: the half-maximal inhibitory concentration (IC50) was under 50 nM at PKMYT1 and 50 to 500 nM in test [1] (4 hours).

Take `Cc1c(F)cncc1C1=c2ncccc2=NC(C(N)=O)C1N` (centres unmarked) [Compound 226]: the figures for the concentration for half-maximal inhibition (IC50) (at PKMYT1; in test [1] (4 hours)) were under 50 nM and 500 to 1000 nM, respectively.

As for `Cc1[nH]nc2cccc(-c3cc(C(N)=O)nc4ccccc34)c12` [Compound 19, 4-(3-Methyl-2H-indazol-4-yl)quinoline-2-carboxamide], the IC50 at PKMYT1 was at least 5000 nM; in test [1] (Homo sapiens, HCC1806, 4 h) it was at least 5000 nM.

With `Cc1ncc(O)c(C)c1-c1c(N)c(C(N)=O)nc2cccnc12` [Compound 256], the half-inhibitory concentration (IC50) is 1000 to 5000 nM at PKMYT1 and at least 5000 nM in test [1] (Homo sapiens, HCC1806, 4 h).

Turning to `Cc1c(O)cccc1-c1c(N)c(C(N)=O)cc2ncc(=O)n(C)c12` [Compound 202], the half-maximal inhibitory concentration (IC50) on PKMYT1 is 1000 to 5000 nM; in test [1] (Homo sapiens, HCC1806, 4 h) it was at least 5000 nM.

As to `COc1ccnc2c(-c3cccc(O)c3C)c(N)c(C(N)=O)cc12` [Compound 318], the 50% inhibitory concentration (IC50) was under 50 nM on PKMYT1 and 50 to 500 nM in test [1] (4 hours).

`Cc1c(O)cccc1-c1c(N)c(C(N)=O)nc2cc(C(F)(F)F)ccc12` (atropisomer, axis not shown) [Compound 147]: the concentration for half-maximal inhibition (IC50) (on PKMYT1; in test [1] (4 hours)) was 1000 to 5000 nM throughout.

For `NC(=O)c1cc2nccnc2c(-c2cccc(O)c2Cl)c1N` (single isomer, unassigned) [Compound 106, (M)-7-amino-8-(2-chloro-3-hydroxyphenyl)quinoxaline-6-carboxamide], the IC50 (at PKMYT1; in test [1] (4 hours)) was at least 5000 nM throughout.

On to `Cc1c(O)cccc1-c1c(N)c(C(N)=O)nc2cccc(F)c12` [Compound 56, 3-Amino-5-fluoro-4-(3-hydroxy-2-methyl-phenyl)quinoline-2-carboxamide], for which the concentration for half-maximal inhibition (IC50) on PKMYT1 lay within 50 to 500 nM; in test [1] (Homo sapiens, HCC1806, 4 h), 500 to 1000 nM.

Turning to `Cc1n[nH]c2cccc(-c3c(N)c(C(N)=O)cc4nccnc34)c12` [Compound 109, 7-Amino-8-(3-methyl-1H-indazol-4-yl)quinoxaline-6-carboxamide], the half-inhibitory concentration (IC50) at PKMYT1 was 50 to 500 nM; in test [1] (Homo sapiens, HCC1806, 4 h), at least 5000 nM.

Consider `COc1nc2cc(C(N)=O)c(N)c(-c3cccc(O)c3C)c2nc1C` (atropisomer, axis not shown) [Compound 193], for which the IC50 (on PKMYT1; in test [1] (4 hours)) was at least 5000 nM in each case.

Regarding `Cc1ccc(O)c(C)c1-c1c(N)c(C(N)=O)nc2ccc(F)cc12` [Compound 20, 3-Amino-6-fluoro-4-(3-hydroxy-2,6-dimethylphenyl)quinoline-2-carboxamide], the IC50 at PKMYT1 lay within 50 to 500 nM; in test [1] (4 hours), 1000 to 5000 nM.

As for `Cc1n[nH]c2cccc(-c3c(N)c(C(N)=O)cc4nccnc34)c12` (single isomer, unassigned) [Compound 119, (P)-7-amino-8-(3-methyl-1H-indazol-4-yl)quinoxaline-6-carboxamide], the IC50 (on PKMYT1; in test [1] (4 hours)) was at least 5000 nM throughout.

`Cc1c(O)cccc1-c1c(N)c(C(N)=O)cc2cccnc12` (single isomer, unassigned) [Compound 62]: the IC50 is under 50 nM at PKMYT1 and 50 to 500 nM in test [1] (4 hours).

Take `Cc1c(O)cccc1-c1c(N)c(C(N)=O)cc2c1ncc(=O)n2C` (atropisomer, axis not shown) [Compound 283]: the IC50 at PKMYT1 was 1000 to 5000 nM; in test [1] (4 hours), at least 5000 nM.

Regarding `Cc1nc2cc(C(N)=O)c(N)c(-c3cccc(O)c3C)c2nc1C` (single isomer, unassigned) [Compound 93, (M)-7-Amino-8-(3-hydroxy-2-methylphenyl)-2,3-dimethylquinoxaline-6-carboxamide], the IC50 (on PKMYT1; in test [1] (4 hours)) was at least 5000 nM in each case.

Take `NC(=O)c1cc2nccnc2c(-c2cccc3[nH]ncc23)c1N` [Compound 108, 7-Amino-8-(1H-indazol-4-yl)quinoxaline-6-carboxamide]: the IC50 at PKMYT1 was 50 to 500 nM; in test [1] (Homo sapiens, HCC1806, 4 h) it was 1000 to 5000 nM.

Take `Cc1ccc(O)c(C)c1-c1c(N)c(C(N)=O)nc2ccc(Cl)cc12` (single isomer, unassigned) [Compound 54, (P)-3-amino-6-chloro-4-(3-hydroxy-2,6-dimethylphenyl)quinoline-2-carboxamide]: the half-inhibitory concentration (IC50) (at PKMYT1; in test [1] (4 hours)) was at least 5000 nM each time.

`NC(=O)c1cc2nccnc2c(-c2cccc(O)c2C(F)(F)F)c1N` [Compound 199]: the 50% inhibitory concentration (IC50) is 50 to 500 nM at PKMYT1 and 1000 to 5000 nM in test [1] (Homo sapiens, HCC1806, 4 h).

`Cc1c(O)cccc1-c1ccnc2nc(C(N)=O)c(N)cc12` [Compound 233]: the half-maximal inhibitory concentration (IC50) was 1000 to 5000 nM at PKMYT1 and at least 5000 nM in test [1] (Homo sapiens, HCC1806, 4 h).

For the molecule `Cc1ccc(O)c(C)c1-c1c(N)c(C#N)cc2nccnc12` (atropisomer, axis not shown) [Compound 301], the IC50 (at PKMYT1; in test [1] (4 hours)) was at least 5000 nM throughout.

In the case of `Cc1ccc2[nH]ncc2c1-c1c(N)c(C(N)=O)cc2nccnc12` [Compound 77, 7-Amino-8-(5-methyl-1H-indazol-4-yl)quinoxaline-6-carboxamide], the 50% inhibitory concentration (IC50) is 50 to 500 nM at PKMYT1 and 1000 to 5000 nM in test [1] (Homo sapiens, HCC1806, 4 h).

For `Cc1c(O)cccc1-c1c(N)c(C(N)=O)cc2c1ncc(=O)n2C` (atropisomer, axis not shown) [Compound 284], the results for the IC50 (on PKMYT1; in test [1] (4 hours)) were 50 to 500 nM and at least 5000 nM, respectively.

Consider `Cc1c(O)cncc1-c1c(N)c(C(N)=O)cc2nccnc12` [Compound 113, 7-amino-8-(5-hydroxy-4-methylpyridin-3-yl)quinoxaline-6-carboxamide], for which the IC50 at PKMYT1 was 50 to 500 nM; in test [1] (Homo sapiens, HCC1806, 4 h), 1000 to 5000 nM.

As for `NC(=O)c1nc2cccnc2c(-c2cncnc2C(F)(F)F)c1N` [Compound 253], the IC50 at PKMYT1 was 1000 to 5000 nM; in test [1] (Homo sapiens, HCC1806, 4 h), at least 5000 nM.

Turning to `Cc1ccc(O)c(C)c1-c1c(N)c(C(N)=O)cc2cccnc12` [Compound 64, 7-Amino-8-(3-hydroxy-2,6-dimethylphenyl)quinoline-6-carboxamide], the IC50 was in the range of 50 to 500 nM at PKMYT1 and 50 to 500 nM in test [1] (Homo sapiens, HCC1806, 4 h).

As for `Cc1cc2nc(N)sc2cc1-c1c(N)c(C(N)=O)cc2nccnc12` [Compound 311], the IC50 at PKMYT1 was 1000 to 5000 nM; in test [1] (Homo sapiens, HCC1806, 4 h), at least 5000 nM.

With `Cc1ccc(O)c(C)c1-c1c(N)c(C(N)=O)cc2cc(Cl)cnc12` (atropisomer, axis not shown) [Compound 235], the 50% inhibitory concentration (IC50) at PKMYT1 was 1000 to 5000 nM; in test [1] (4 hours) it was at least 5000 nM.

`Cc1ccc(O)c(C)c1-c1c(N)c(C(N)=O)nc2cc(Cl)ccc12` [Compound 42, 3-Amino-7-chloro-4-(3-hydroxy-2,6-dimethylphenyl)quinoline-2-carboxamide]: the IC50 is 500 to 1000 nM on PKMYT1 and 1000 to 5000 nM in test [1] (Homo sapiens, HCC1806, 4 h).

As to `Cc1ccc(O)c(C)c1-c1c(N)c(C(N)=O)nc2c(C)cccc12` (single isomer, unassigned) [Compound 32], the IC50 on PKMYT1 is at least 5000 nM; in test [1] (Homo sapiens, HCC1806, 4 h) it was at least 5000 nM.

`Cc1cc(O)c(C)c(-c2c(N)c(C(N)=O)nc3cccnc23)c1` [Compound 291]: the IC50 at PKMYT1 is 1000 to 5000 nM; in test [1] (4 hours) it was at least 5000 nM.

For `Cc1cnncc1-c1c(N)c(C(N)=O)nc2cccnc12` [Compound 257], the IC50 on PKMYT1 was at least 5000 nM; in test [1] (Homo sapiens, HCC1806, 4 h) it was at least 5000 nM.

For the molecule `COc1ccc2nc(C(N)=O)c(N)c(-c3cc(O)ncc3C)c2n1` [Compound 315], the IC50 is at least 5000 nM on PKMYT1 and at least 5000 nM in test [1] (Homo sapiens, HCC1806, 4 h).

In the case of `Cc1cncc(C2=c3ncccc3=NC(C(N)=O)C2N)c1C` (centres unmarked) [Compound 211], the IC50 on PKMYT1 was in the range of 500 to 1000 nM; in test [1] (Homo sapiens, HCC1806, 4 h) it was 1000 to 5000 nM.

As to `Cc1ccc(O)c(C)c1-c1c(N)c(C(N)=O)cc2cccnc12` (single isomer, unassigned) [Compound 65, (M)-7-Amino-8-(3-hydroxy-2,6-dimethyl-phenyl)quinoline-6-carboxamide], the 50% inhibitory concentration (IC50) on PKMYT1 is 500 to 1000 nM; in test [1] (4 hours), at least 5000 nM.

Consider `CCOc1ccc2nc(C(N)=O)c(N)c(-c3cccc(O)c3C)c2n1` [Compound 154], for which the half-maximal inhibitory concentration (IC50) is under 50 nM on PKMYT1 and 50 to 500 nM in test [1] (Homo sapiens, HCC1806, 4 h).

Take `Cc1cnc2cc(C(N)=O)c(N)c(-c3c(C)ccc(O)c3C)c2n1` [Compound 156]: the concentration for half-maximal inhibition (IC50) at PKMYT1 is under 50 nM; in test [1] (4 hours) it was 50 to 500 nM.

On to `Cc1ccc(-c2c(N)c(C(N)=O)nc3cccnc23)c(C)c1O` [Compound 292], for which the half-maximal inhibitory concentration (IC50) at PKMYT1 fell in the range of 50 to 500 nM; in test [1] (4 hours), 500 to 1000 nM.

In the case of `Cc1ccc2[nH]ncc2c1-c1cc(C(N)=O)cc2nccnc12` [Compound 70, 8-(5-Methyl-1H-indazol-4-yl)quinoxaline-6-carboxamide], the half-maximal inhibitory concentration (IC50) on PKMYT1 is at least 5000 nM; in test [1] (Homo sapiens, HCC1806, 4 h) it was at least 5000 nM.
